US11666562B2, “Ilaprazole for inhibiting the release of enveloped viruses from cells” (Northwestern University, priority 2020, dated 2023)
Where two headings read alike, the source gives them in different places.

Key:
HSV-2 = assay: Transmission electron microscopy of HSV-2 infected Vero cells, location of virus particles; format: cell-based, Herpes simplex virus-2(A/B-G); conditions: 24 h, 80 cells
Protocol: Cellular location of tenatoprazole inhibition. We next imaged herpesvirus infected-Vero cells using transmission electron microscopy to determine the site of inhibition of release of virus and whether it was similar to observations of HIV-1 release from 293T cells. Vero cells grown on glass cover slips were infected with HSV-2 at MOI of 0.1 pfu/cell for 2 h and then treated for 24 h with 105 μM tenatoprazole or vehicle control. In the no drug control, virus particles were in both the nucleus and cytoplasm near the cell surface (FIG. 2A). In the tenatoprazole-treated cells the cytosol of all of the intact cells was largely devoid of virus particles (FIG. 2B). Instead, we observed large pockets of granular material accumulated in the nucleus and immature virus particles inside the nucleus and lining the inside of the nuclear membrane (inset, B).
We next carried out a transmission electron microscopic examination of cells infected with HSV-2 at a MOI 0.1 in the presence and absence of 18 μM ilaprazole to determine if this drug causes the accumulation of virus particles in the nucleus of cells similar to tenatoprazole. Without drug, we observe particles in the cytoplasm and in the nucleus (FIGS. 4A & B), in the presence of drug little or no viral particles are found in the cytoplasm (FIGS. 4C & D). In both heavily infected cells (FIGS. 4A & C) and mildly infected cells (FIGS. 4B & D), treatment lead to particles being detected in the nucleus and arrayed along the nuclear membrane but lacking in the cytosol. […] Similar results were obtained with HSV-1 infected cells (FIG. 4E-H). Particles are seen in both the cytoplasm and nucleus in the absence of drug and just in the nucleus in the presence of drug. […] The lower total infectious virus detected in Table 3 (FIG. 7) is consistent with blockage of the virus passaging out of the nucleus into the cytoplasm where membranes are exchanged and virus becomes infectious.
Transmission electron Microscopy. Vero cells on glass cover slips were infected with HSV-2 at a MOI of 0.1 for two hours. Then 105 μM of tenatoprazole or 18 μM Ilaprazole was added and cells incubated for 24 hours. Tissue samples were fixed in 0.1 M sodium cacodylate buffer pH 7.3 containing 2% paraformaldehyde and 2.5% glutaraldehyde and post-fixed with 2% osmium tetroxide in unbuffered aqueous solution. The samples were rinsed with distilled water, en bloc stained with 3% uranyl acetate, rinsed with distilled water, dehydrated in ascending grades of ethanol, transitioned with propylene oxide, embedded in the resin mixture of Embed 812 kit and cured in a 60° C. oven. Samples were sectioned on a Leica Ultracut UC6 ultramicrotome. 1 μm thick sections were collected and stained with Toluidine Blue O and 70 nm sections were collected on 200 mesh copper grids; thin sections were stained with uranyl acetate and Reynolds lead citrate. Transmission electron microscopy (TEM) was performed on a FEI Tecnai Spirit G2.

HSV-1 = assay: Release of HSV-1 from infected Vero cells, plaque assay; format: cell-based, Herpes simplex virus-1 (Kos strain); conditions: for EC50: Human alphaherpesvirus 1; for Duration of inhibition of HSV-1 release after a single application: data not shown
Protocol: We infected Vero cells with HSV-1 and HSV-2 for two hours at a multiplicity of infection (MOI in pfu\cell) of 0.1 to assay the antiviral activity of tenatoprazole. Following infection, cells were treated with different concentrations of tenatoprazole. After 24 or 48 h the media fractions were collected and released virus titers were determined by standard plaque assays (30). Tenatoprazole caused a 3-log drop of HSV-1 and 4-5 log drop of HSV-2 in released infectious virus from Vero cells at 24 hours after infection in a dose dependent manner (Table 1, shown in FIG. 5, columns 2 and 3) with calculated EC50's ranging from 48-80 μM. Total virus titer was also determined to differentiate between virus released into the media and infectious particles present in cell lysate. […] The concentrations of tenatoprazole that blocked virus release were nontoxic to Vero cells as determined by a 96® AQueous One Solution cell proliferation assay reagent (Table 1, shown in FIG. 5, column 7). Taken together, tenatoprazole inhibited levels of both released and infectious virus particles without affecting cell viability at effective concentrations.
Herpesvirus infection of Vero cells. Vero cells (0.8×10^6 cells/well of a 6-well plate) were infected with HSV-1 or HSV-2 at a MOI of 0.1 pfu/cell in DMEM with 1% serum for two hours in the C02 incubator at 37° C. In one experiment looking at the effect of tenatoprazole on HSV-2 release from cells 24 and 48 h a MOI of 3 pfu/cell was used. The cell supernatants were aspirated and replaced with 1 ml (24 h) or 2 ml (48 h and 72 h) of DMEM with 1% serum with DMSO or different concentrations of drug (tenatoprazole, ilaprazole, or analogs) dissolved in DMSO. After 24 or 48 h incubation, the cell supernatant was collected and frozen at −80° C. Virus titer in the cell media fraction was determined by standard plaque assays using 10-fold serial dilutions of cell supernatants of Vero cells and incubated for 48 h after which cells were fixed and stained to count the plaques (22). For determination of total virus (extracellular+cytoplasmic), virus infected cells were incubated for 24 h with and without drug presence, then the plate of cells were subjected to 3 cycles of freeze/thawing (−80° C./37° C.) 30 min each prior to collecting the supernatant after centrifugation for measurement of total virus titer. Virus titer was measured by standard plaque assay as above.
Drug potency and cell toxicity. EC50 calculations were determined by using AAT Bioquest's EC50 calculator. Cell toxicity at different concentrations of drugs as indicated was determine using the Cell Proliferation Reagent WST-1 (Roche Diagnostics) or cellular 96® Aqueous One Reagent viability reagent according to manufacturer's instructions. For 293T cells, the concentration of DMSO was 0.2% or less and assays were carried out with DMEM with 10% serum. Cell toxicity experiments were repeated twice.

HIV-1 = conditions: earlier reports (refs 5, 29); cited from earlier work
[1] = Vero cells, MOI 0.1, 24 h, read-out: EC50, inhibition of HSV-1 release

Compound	Average number of virus particles in the nucleus (HSV-2; HSV-2, 18 μM ilaprazole) [particles]	Range of number of virus particles in the nucleus (HSV-2; HSV-2, 18 μM ilaprazole)	Virus particles in the cytoplasm (HSV-2; HSV-2, 18 μM ilaprazole) [particles]	EC50 (HSV-1; Vero cells, 72 h after a single application (Table 3A columns 2 & 4, HSV-1), read-out: 72 h EC50, inhibition of virus release) [µM]	EC50 (HSV-1; [1]) [µM]	Total infectious virus (released plus inside cells), HSV-1 (HSV-1; Vero cells, freeze/thaw lysate)	Duration of inhibition of HSV-1 release after a single application (HSV-1)	Average number of virus particles in the nucleus (HSV-2; HSV-2, 105 μM tenatoprazole) [particles]	Virus particles in the cytoplasm (HSV-2; HSV-2, 105 μM tenatoprazole)	Inhibition of release of infectious HIV-1 from 293T cells (HIV-1)	Drop in released infectious HSV-1 (HSV-1; Vero cells, 24 hours after infection, dose dependent) [log]
COc1ccnc(C[S+]([O-])c2nc3ccc(-n4cccc4)cc3[nH]2)c1C (stereo not shown) [Ilaprazole, 2-[(4-methoxy-3-methylpyridin-2-yl)methylsulfinyl]-6-pyrrol-1-yl-1H-benzimidazole]	31	9-56 particles	0	0.8 to 1.2	3 to 9	significant drop in total virus	Significant inhibition was still observed at 4 and 5 days	–	–	–	–
COc1ccc2[nH]c([S+]([O-])Cc3ncc(C)c(OC)c3C)nc2n1 (stereo not shown) [Tenatoprazole]	–	–	–	–	48 to 80	–	began to fall off after 48 h	31	did not detect virus particles	quantitatively inhibit the release	3
